Test systems include Bacillus subtilis 168 HT; Escherichia coli MG1655; Escherichia coli UB1005; Escherichia coli DC2; Candida albicans C627; Escherichia coli JW0013.
What all share (test): ≥ marks a high value that may be exact or a test limit, other limits are often not marked, values filed in µg/mL are converted to µM
Experiment [1] deals with Staphylococcus aureus NCTC 10788.
Experiment [2] deals with Escherichia coli NCTC 10418.
Experiment [3] deals with Candida albicans NCPF 1467.
Experiment [4] concerns Pseudomonas aeruginosa Z61.
Experiment [5] concerns Escherichia coli CGSC 4908.
For experiment [6], the system named is Salmonella enterica subsp. enterica serovar Typhimurium ATCC 14028s.
Experiment [7] deals with Aeromonas salmonicida 99-1.
Experiment [8] has as its system Pseudomonas aeruginosa K799.
Experiment [9] has as its system Staphylococcus aureus C623.
Experiment [10] concerns Salmonella enterica serovar typhimurium MS7953s.
The subject of experiment [11] is Aeromonas salmonicida 97-4.
Experiment [12] concerns Staphylococcus epidermidis C621.
Experiment [13] has as its system Micrococcus luteus ATCC 4698.
Experiment [14] has as its system Staphylococcus aureus ATCC 25923.
Experiment [15] deals with Bacillus thuringiensis ATCC 10792.
Experiment [16] deals with Enterococcus faecium CCT 5079.
In experiment [17] the test system is Staphylococcus aureus CCT 2580.
Experiment [18] has as its system Escherichia coli ATCC 11775.
Experiment [19] has as its system Escherichia coli CCT 1457.
In experiment [20] the test system is Salmonella enterica subsp. enterica serovar Choleraesuis ATCC 10708.
The subject of experiment [21] is Pseudomonas aeruginosa ATCC 15422.
For experiment [22], the system named is Bacillus cereus ATCC 11778.
In experiment [23] the test system is Streptococcus pneumoniae ATCC 11733.
The subject of experiment [24] is Staphylococcus aureus CCT 6538.
Experiment [25] deals with Streptococcus mutans AU159.
The test system of experiment [26] is Pseudomonas aeruginosa ATCC 13388.
For experiment [27], the system named is Enterococcus hirae ATCC 10541.
The test system of experiment [28] is Escherichia coli ATCC 25922.
Experiment [29] concerns Salmonella enterica subsp. enterica serovar Typhimurium ATCC 14028.
The subject of experiment [30] is Staphylococcus epidermidis ATCC 12228.
For experiment [31], the system named is Escherichia coli K12 MG1655.

The text below walks through data of DBAASP.

In brackets after ≈: the same amount, converted by molar mass. Where only a bound is given, the exact number is not on record here.

As a reminder, the MIC is the least concentration at which growth counts as inhibited. Low readings indicate a more susceptible organism, high ones a less susceptible organism. With `CC[C@H](C)[C@H](NC(=O)[C@H](CC(C)C)NC(=O)[C@@H](N)CS)C(=O)N[C@@H](CCSC)C(=O)N[C@@H](CCCCN)C(=O)N[C@H](C(=O)N[C@@H](CCCN=C(N)N)C(=O)N[C@@H](CCCN=C(N)N)C(=O)N[C@@H](CCCCN)C(=O)N[C@@H](CCCCN)C(=O)O)C(C)C` [CLIMKVRRKK], the MIC was 12.6 µM (≈ 16.1 µg/mL) in the experiment on Bacillus subtilis 168 HT and no less than 100 µM in the experiment on Escherichia coli MG1655.

Regarding `CC[C@H](C)[C@H](NC(=O)[C@H](C)NC(=O)[C@H](CC(N)=O)NC(=O)[C@@H]1CCCN1C(=O)[C@@H](NC(=O)[C@H](CC(C)C)NC(=O)[C@H](CO)NC(=O)[C@H](Cc1ccccc1)NC(=O)[C@H](CC(C)C)NC(=O)[C@@H](N)Cc1ccccc1)[C@@H](C)CC)C(=O)N[C@@H](CO)C(=O)NCC(=O)N[C@@H](CC(C)C)C(=O)N[C@@H](CC(C)C)C(=O)N[C@@H](CO)C(=O)N[C@@H](C)C(=O)N[C@@H](Cc1ccccc1)C(=O)N[C@H](C=O)CCCCN` [FLFSLIPNAISGLLSAFK], the figures for the MIC in [1], in experiment [2] and in [3] were 8 µM (≈ 15.4 µg/mL), no less than 250 µM and 16 µM (≈ 30.8 µg/mL), respectively.

Regarding `CC[C@H](C)[C@H](NC(=O)[C@H](C)NC(=O)[C@H](C)NC(=O)[C@H](CCC(N)=O)NC(=O)CNC(=O)[C@H](CC(C)C)NC(=O)[C@H](Cc1cnc[nH]1)NC(=O)[C@H](CCCCN)NC(=O)[C@H](C)NC(=O)CNC(=O)[C@H](CCCCN)NC(=O)[C@H](CCCNC(=N)N)NC(=O)[C@H](CC(C)C)NC(=O)[C@H](Cc1c[nH]c2ccccc12)NC(=O)[C@H](CCCCN)NC(=O)[C@H](CCCCN)NC(=O)[C@H](Cc1c[nH]c2ccccc12)NC(=O)CN)C(=O)N[C@@H](CCCCN)C(=O)NCC(=O)N[C@@H](CC(C)C)C(=O)N[C@@H](C)C(=O)N[C@@H](CO)C(C)=O` [GWKKWLRKGAKHLGQAAIKGLAS], the minimum inhibitory concentration (MIC) worked out at 0.798 µM (≈ 2 µg/mL) in [4]; 1.6 µM (≈ 4 µg/mL) against Escherichia coli UB1005; 0.399 µM (≈ 0.999 µg/mL) in experiment [5]; 3.19 µM (≈ 7.99 µg/mL) in experiment [6]; 0.798 µM (≈ 2 µg/mL) in experiment [7]; 1.6 µM (≈ 4 µg/mL) in experiment [8]. Besides, the MIC turned out to be 0.399 µM (≈ 0.999 µg/mL) in the experiment on Escherichia coli DC2; 6.39 µM (≈ 16 µg/mL) in [9]; 0.399 µM (≈ 0.999 µg/mL) in experiment [10]; 0.399 µM (≈ 0.999 µg/mL) in experiment [11]; 12.8 µM (≈ 32 µg/mL) in [12]; 3.19 µM (≈ 7.99 µg/mL) against Candida albicans C627.

As to `CC[C@H](C)[C@H](N)C(=O)N[C@@H](CC(N)=O)C(=O)N[C@@H](Cc1c[nH]c2ccccc12)C(=O)N[C@@H](CCCCN)C(=O)N[C@@H](CCCCN)C(=O)N[C@H](C(=O)N[C@@H](CCCCN)C(=O)N[C@@H](CCCCN)C(=O)N[C@@H](CCCCN)C(=O)N[C@H](C(=O)N[C@@H](CCCCN)C(=O)NCC(=O)N[C@@H](CCSC)C(=O)N[C@@H](CC(C)C)C(N)=O)C(C)C)[C@@H](C)CC` [INWKKIKKKVKGML], the MIC in experiment [13] was 0.583 µM (≈ 1 µg/mL); in experiment [14], 1.17 µM (≈ 2 µg/mL); in [15] it was no less than 72.9 µM; in [16] it was 1.17 µM (≈ 2 µg/mL); in [17], 1.17 µM (≈ 2 µg/mL); in experiment [18], 9.33 µM (≈ 16 µg/mL). In addition, the MIC in experiment [19] was 0.583 µM (≈ 1 µg/mL); in [20], 18.1 µM (≈ 31 µg/mL); in experiment [21], 9.33 µM (≈ 16 µg/mL); in experiment [22], no less than 72.9 µM; in [23], 0.583 µM (≈ 1 µg/mL); in experiment [24], no less than 36.8 µM. In addition, the MIC in experiment [25] is 9.33 µM (≈ 16 µg/mL); in [26] it was 9.33 µM (≈ 16 µg/mL); in [27], no less than 36.8 µM; in experiment [28], 9.33 µM (≈ 16 µg/mL); in experiment [29], 4.67 µM (≈ 8 µg/mL); in [30], 0.583 µM (≈ 1 µg/mL).

For the compound `CC[C@H](C)[C@H](N)C(=O)N[C@@H](CC(N)=O)C(=O)N[C@@H](Cc1c[nH]c2ccccc12)C(=O)N[C@@H](CC(C)C)C(=O)N[C@@H](CCCCN)C(=O)N[C@H](C(=O)N[C@@H](C)C(=O)N[C@@H](C)C(=O)N[C@@H](C)C(=O)N[C@H](C(=O)N[C@@H](C)C(=O)NCC(=O)N[C@@H](CCSC)C(=O)N[C@@H](CC(C)C)C(N)=O)C(C)C)[C@@H](C)CC` [INWLKIAAAVAGML], the MIC in experiment [13] was no less than 85 µM; in experiment [14], 170 µM (≈ 250 µg/mL); in experiment [15] it was no less than 85 µM; in experiment [16], no less than 340 µM; in experiment [17], 0.68 µM (≈ 0.999 µg/mL); in experiment [18], no less than 340 µM. Besides, the MIC in [19] was 21.1 µM (≈ 31 µg/mL); in experiment [20], no less than 340 µM; in experiment [21], 21.1 µM (≈ 31 µg/mL); in experiment [22], no less than 85 µM; in experiment [23], 1.36 µM (≈ 2 µg/mL); in [24], no less than 170 µM. The minimal inhibitory concentration (MIC) was no less than 340 µM in experiment [25]; no less than 340 µM in [26]; no less than 340 µM in experiment [27]; 85 µM (≈ 125 µg/mL) in experiment [28]; 340 µM (≈ 500 µg/mL) in [29]; 42.8 µM (≈ 63 µg/mL) in [30].

The compound `CC[C@H](C)[C@H](NC(=O)CNC(=O)[C@@H](NC(=O)[C@H](CCCCN)NC(=O)[C@H](C)NC(=O)[C@H](CC(C)C)NC(=O)[C@H](CS)NC(=O)[C@H](CCCCN)NC(=O)[C@H](Cc1c[nH]c2ccccc12)NC(=O)[C@@H](N)CCCCN)C(C)C)C(=O)N[C@@H](C)C(=O)N[C@@H](C)C(=O)N[C@@H](Cc1cnc[nH]1)C(=O)O` [KWKCLAKVGIAAH] registered an MIC in experiment [31] of no less than 89.8 µM.

In turn, `CC[C@H](C)[C@H](NC(=O)[C@H](CCCN=C(N)N)NC(=O)[C@H](CCCN=C(N)N)NC(=O)[C@@H]1CCCN1C(=O)[C@@H]1CCCN1C(=O)[C@H](CCCN=C(N)N)NC(=O)[C@@H]1CCCN1C(=O)[C@H](CCCN=C(N)N)NC(=O)[C@@H]1CCCN1C(=O)[C@H](CC(C)C)NC(=O)[C@H](Cc1ccc(O)cc1)NC(=O)[C@@H]1CCCN1C(=O)CNC(=O)[C@H](CCCCN)NC(=O)[C@H](CC(=O)O)NC(=O)[C@@H](N)C(C)C)C(=O)N[C@@H](Cc1ccc(O)cc1)C(=O)N[C@@H](CC(N)=O)C(=O)N[C@@H](CCCN=C(N)N)C(N)=O` [VDKGPYLPRPRPPRRIYNR] yielded a minimum inhibitory concentration (MIC) against Escherichia coli JW0013 of 1.4 µM (≈ 3.3 µg/mL).

In turn, `CC[C@H](C)[C@H](NC(=O)[C@H](CCCN=C(N)N)NC(=O)[C@H](CCCN=C(N)N)NC(=O)[C@@H]1CCCN1C(=O)[C@@H]1CCCN1C(=O)[C@H](CCCN=C(N)N)NC(=O)[C@@H]1CCCN1C(=O)[C@H](CCCN=C(N)N)NC(=O)[C@@H]1CCCN1C(=O)[C@H](CC(C)C)NC(=O)[C@H](CCCN=C(N)N)NC(=O)[C@@H]1CCCN1C(=O)[C@H](CCCCN)NC(=O)[C@H](CCCCN)NC(=O)[C@H](CC(=O)O)NC(=O)[C@@H](N)C(C)C)C(=O)N[C@@H](Cc1ccc(O)cc1)C(=O)N[C@@H](CC(N)=O)C(=O)N[C@@H](CCCN=C(N)N)C(N)=O` [VDKKPRLPRPRPPRRIYNR] had an MIC in the experiment with Escherichia coli JW0013 of 0.663 µM (≈ 1.6 µg/mL).
